Reference: patent US11707503B2, “Modulators of complement activity” (Ra Pharmaceuticals, Inc., priority 2015, dated 2023)
“Also recorded” adds a separate entry of the source. Starred links: 1 amine or outer side, 2 acyl side, 3 side chain; linkers in the order of their positions; H or OH if unused. Positions of bridges follow the written chain, without caps; N, C: chain ends. Non-standard residues stand in square brackets, D forms with d. Residues, ends and D or L forms follow the SMILES beside them. Trp(7-aza) = N[C@@H](Cc1c[nH]c2ncccc12)C(=O)O; Tiq1c(1S) = O=C(O)[C@H]1NCCc2ccccc21; mXylylene = c1cc(C[*:1])cc(C[*:2])c1; pXylylene = c1cc(C[*:2])ccc1C[*:1]; Phg = N[C@H](C(=O)O)c1ccccc1; Tle = CC(C)(C)[C@H](N)C(=O)O; NMeS = CN[C@@H](CO)C(=O)O; hCys = N[C@@H](CCS)C(=O)O; Nva = CCC[C@H](N)C(=O)O

Tests used:
C5 [1] = molecular target: T1, C5 (Homo sapiens, UniProt P01031); assay: Competitive fluorescence polarization (FP) binding assay with probe R3076; parameters: purchased Complement Technology, Tyler, Tex
T1 sequence (P01031 678-1676 limits assumed): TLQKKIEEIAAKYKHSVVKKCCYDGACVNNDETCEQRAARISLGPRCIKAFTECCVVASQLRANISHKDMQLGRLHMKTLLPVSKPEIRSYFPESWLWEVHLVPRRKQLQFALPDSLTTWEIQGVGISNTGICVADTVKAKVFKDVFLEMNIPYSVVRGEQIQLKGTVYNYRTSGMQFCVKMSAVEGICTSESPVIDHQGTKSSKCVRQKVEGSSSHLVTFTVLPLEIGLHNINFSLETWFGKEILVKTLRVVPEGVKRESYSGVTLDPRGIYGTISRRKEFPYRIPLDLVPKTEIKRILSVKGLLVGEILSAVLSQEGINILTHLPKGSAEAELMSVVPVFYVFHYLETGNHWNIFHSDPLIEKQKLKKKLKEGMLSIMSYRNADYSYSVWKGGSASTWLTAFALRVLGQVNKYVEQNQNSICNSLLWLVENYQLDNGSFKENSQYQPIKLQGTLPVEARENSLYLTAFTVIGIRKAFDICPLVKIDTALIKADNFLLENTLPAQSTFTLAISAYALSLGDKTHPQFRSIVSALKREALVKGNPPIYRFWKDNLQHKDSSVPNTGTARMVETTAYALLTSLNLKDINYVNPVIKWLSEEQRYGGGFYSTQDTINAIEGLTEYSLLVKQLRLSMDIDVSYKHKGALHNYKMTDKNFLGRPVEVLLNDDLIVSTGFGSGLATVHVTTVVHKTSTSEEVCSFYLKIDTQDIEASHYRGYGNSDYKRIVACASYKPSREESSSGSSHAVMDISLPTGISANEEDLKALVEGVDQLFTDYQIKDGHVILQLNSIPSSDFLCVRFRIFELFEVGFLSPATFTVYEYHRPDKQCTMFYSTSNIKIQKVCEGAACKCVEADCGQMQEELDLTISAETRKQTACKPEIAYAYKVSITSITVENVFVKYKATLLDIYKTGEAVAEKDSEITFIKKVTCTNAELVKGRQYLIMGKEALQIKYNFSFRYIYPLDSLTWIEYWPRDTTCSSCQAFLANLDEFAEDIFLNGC
T1 sequence (P01031 19-673 limits assumed): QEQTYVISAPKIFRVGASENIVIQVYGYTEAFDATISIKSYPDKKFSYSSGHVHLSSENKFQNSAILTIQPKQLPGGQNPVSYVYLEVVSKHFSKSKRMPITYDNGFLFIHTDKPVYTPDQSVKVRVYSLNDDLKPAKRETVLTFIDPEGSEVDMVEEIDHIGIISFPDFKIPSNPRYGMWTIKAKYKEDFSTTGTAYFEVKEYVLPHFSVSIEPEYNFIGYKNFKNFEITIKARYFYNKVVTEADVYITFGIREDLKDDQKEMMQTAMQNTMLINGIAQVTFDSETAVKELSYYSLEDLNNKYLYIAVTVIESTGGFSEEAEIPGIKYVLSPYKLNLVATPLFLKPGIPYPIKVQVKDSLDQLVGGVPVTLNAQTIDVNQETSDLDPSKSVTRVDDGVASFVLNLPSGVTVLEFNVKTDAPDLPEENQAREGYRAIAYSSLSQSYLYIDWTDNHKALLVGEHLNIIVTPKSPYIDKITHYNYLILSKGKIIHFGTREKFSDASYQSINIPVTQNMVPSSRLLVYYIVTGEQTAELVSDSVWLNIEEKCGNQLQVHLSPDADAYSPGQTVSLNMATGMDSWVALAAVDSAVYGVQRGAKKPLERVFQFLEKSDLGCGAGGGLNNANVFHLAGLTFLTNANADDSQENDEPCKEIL
Experimental: FP was used for screening competitive polypeptide inhibitors of the C5 protein. […] The BODIPY-TMR dye attached to the C-terminal lysine of the protein and the subsequent labeled probe was purified by HPLC.
Human C5 protein was diluted to 200 nM in assay buffer, composed of TBS (EMD Millipore, Billerica, Mass.)+0.005% Triton-X (Sigma, Saint Louis, Mo.). 10 μl of assay buffer was added to all wells of a black, non-binding, 384-well assay plate (Greiner, Monroe, N.C.) and 10 μl of diluted C5 protein stock was added to experimental and designated control wells.
Probe R3076 (SEQ ID NO: 40) was diluted 1 to 10 in DMSO (Life Technologies, Grand Island, N.Y.) and 30 μl of that stock was diluted in 3 ml of assay buffer to yield a 100 nM stock. 10 μl of this working stock was then added to each well in the assay plate. The assay plate was incubated at room temperature, protected from light, for 20 minutes to allow binding to reach equilibrium.
Test articles listed in Table 7 were subsequently diluted in DMSO then assay buffer, comprising 10 2-fold dilutions and were then added to the assay plate in triplicate, rapidly. The assay plate was then incubated in the Paradigm (Molecular Devices, Sunnyvale, Calif.) plate reader for 60 minutes at 25° C.
After incubation for 60 minutes, the plate was read using the Paradigm FP protocol (Molecular Devices, Sunnyvale, Calif.) and raw polarization values were imported into Graphpad Prism.

C5 [2] = molecular target: T1, C5; assay: Human hemolysis assay (RBC lysis assay using complete human sera); type: cell-based; parameters: with complete human sera (Complement Technology, Tyler Tex.) and polypeptides; tissue Complement Technology, Tyler Tex; host or cells: complete human serum; conditions: for change in ability to inhibit red blood cell lysis in words: relative to parent polypeptide; for IC50: antibody-sensitized sheep erythrocytes, complete human sera
Experimental: Polypeptides listed in Table 3, as well as their optimized derivatives (see Table 4) were assessed for inhibitor activity using a red blood cell hemolysis assay. […] Human sera was rapidly thawed at 37° C. and then stored on ice until diluted into GVB++. Ten 6-fold serial dilutions of polypeptides (10 mM stock, DMSO) were performed in DMSO and then added to buffer. 50 μl of each polypeptide dilution was combined with sera and 100 μl of cells in individual wells of a 96-well tissue culture-treated clear microtitre plate (USA Scientific, Ocala, Fla.) and resuspended by pipetting. Samples were incubated at 37° C. for one hour. […] Data was fit with a log-logit formula producing a dose-response curve and IC50. As used herein, the term “IC50” refers to the half maximal inhibitory concentration, a value used to indicate the amount of the inhibitor needed to reduce a given reaction or process by half.
The human constant light chain kappa and IgG2 constant heavy chain sequences were used for the constants regions of the antibody. This antibody was expressed from human embryonic kidney cells (HEK293) and purified by Protein A affinity chromatography. […] Human sera was rapidly thawed at 37° C. and then stored on ice until diluted into GVB++. Ten 6-fold serial dilutions of each compound (10 mM stock, DMSO) were performed in DMSO and then added to buffer. 50 μl of each compound dilution was combined with sera and 100 μl of cells in individual wells of a 96-well tissue culture-treated clear microtitre plate (USA Scientific, Ocala, Fla.) and resuspended by pipetting. Samples were incubated at 37° C. for one hour. […] Data was fit with a log-logit formula producing a dose-response curve and IC50 (see FIG. 11A).

| SMILES | competition for / affinity for C5 in words (C5 [1]) | IC50 (C5 [2]) [µM] | other results |
| --- | --- | --- | --- |
| CSCC[C@H](N)C(=O)N[C@H]1CSCc2cccc(c2)CSC[C@@H](C(=O)N[C@@H](CC(=O)O)C(=O)N[C@H](C(=O)N[C@@H](Cc2ccc(O)cc2)C(=O)N[C@@H](Cc2c[nH]c3ccccc23)C(=O)N[C@@H](CCC(=O)O)C(N)=O)C(C)C)NC(=O)[C@H](Cc2ccccc2)NC(=O)[C@H](CCCNC(=N)N)NC(=O)[C@H](CCC(=O)O)NC(=O)[C@H](C(C)C)NC1=O [Compound R3043, [mXylyl(2,7)]M-C-V-E-R-F-C-D-V-Y-W-E-NH2] (H-MCVERFCDVYWE-NH2; linker 2-7 via mXylylene) | weak affinity |  |  |
| CCC[C@H](NC(=O)[C@@H]1CCCN1C(=O)[C@H](CCC)NC(=O)[C@@H]1CSCc2cccc(c2)CSC[C@H](NC(C)=O)C(=O)N[C@@H](c2ccccc2)C(=O)N[C@@H]([C@@H](C)O)C(=O)N[C@@H](Cc2c[nH]c3ncccc23)C(=O)N[C@@H](CCC(=O)O)C(=O)N[C@@H](Cc2ccc(O)cc2)C(=O)N(C)[C@@H](CO)C(=O)N[C@@H](Cc2c[nH]cn2)C(=O)N1)C(N)=O [Compound R3014, [mXylyl(1,9)]Ac-C-Phg-T-azaTrp-E-Y-(N—Me)S-H-C-Nvl-P-Nvl-NH2] (Ac-C[Phg]T[Trp(7-aza)]EY[NMeS]HC[Nva]P[Nva]-NH2; linker 1-9 via mXylylene) | weak affinity |  |  |
| CC(=O)N[C@H]1CSCc2cccc(c2)CSC[C@@H](C(=O)N[C@@H](Cc2c[nH]c3ccccc23)C(=O)N[C@@H](CCC(=O)O)C(=O)N[C@@H](Cc2ccccc2)C(N)=O)NC(=O)[C@H](Cc2ccccc2)NC(=O)[C@H](CCCNC(=N)N)NC(=O)[C@H](CCC(=O)O)NC(=O)[C@H](C(C)C)NC1=O [Compound R3125, [mXylyl(1,6)]Ac-C-V-E-R-F-C-W-E-F-NH2] (Ac-CVERFCWEF-NH2; linker 1-6 via mXylylene) |  |  | change in ability to inhibit red blood cell lysis in words (C5 [2]): decrease in the ability |
| CCC[C@H](NC(=O)[C@H](Cc1ccc(O)cc1)NC(=O)[C@H](CC(N)=O)NC(=O)[C@H](CCC)NC(=O)[C@H](CCC(=O)O)NC(=O)[C@@H](NC(=O)[C@H](Cc1c[nH]c2ncccc12)NC(=O)[C@@H](NC(=O)[C@H](CS)NC(=O)[C@H](Cc1ccc(O)cc1)NC(=O)[C@@H]1CCCN1C(=O)[C@H](Cc1ccc(O)cc1)NC(C)=O)c1ccccc1)C(C)(C)C)C(=O)N[C@@H](CCC(=O)O)C(N)=O [Compound R3023, Ac-Y-P-Y-C-Phg-azaTrp-Tbg-E-Nvl-N-Y-Nvl-E-NH2] (Ac-YPYC[Phg][Trp(7-aza)][Tle]E[Nva]NY[Nva]E-NH2) | no activity at the highest concentration tested; also recorded: not detected at the highest concentration tested; also recorded: no affinity |  |  |
| CCC[C@H](NC(=O)[C@@H](NC(=O)[C@@H]1CCCN1C(=O)[C@H](Cc1ccc(O)cc1)NC(=O)[C@H](CCC(=O)O)NC(=O)[C@H](Cc1c[nH]c2ncccc12)NC(=O)[C@H](Cc1ccc(O)cc1)NC(=O)[C@@H](NC(=O)[C@H](CC(=O)O)NC(=O)[C@@H]1CSCc2cccc(c2)CSC[C@H](NC(C)=O)C(=O)N[C@@H](C(C)C)C(=O)N[C@@H](C)C(=O)N[C@@H](CCCNC(=N)N)C(=O)N[C@@H](Cc2ccccc2)C(=O)N1)C(C)(C)C)c1ccccc1)C(N)=O [Compound R3150, [mXylyl(1,6)]Ac-C-V-A-R-F-C-D-Tbg-Y-azaTrp-E-Y-P-Phg-Nvl-NH2] (Ac-CVARFCD[Tle]Y[Trp(7-aza)]EYP[Phg][Nva]-NH2; linker 1-6 via mXylylene) |  | 0.032 |  |
| CCC[C@H](NC(C)=O)C(=O)N[C@@H](CS)C(=O)N[C@@H](Cc1ccc(O)cc1)C(=O)N[C@@H](CCC(=O)O)C(=O)N[C@@H](CC(N)=O)C(=O)N[C@H](C(=O)N[C@@H](Cc1ccc(O)cc1)C(=O)N[C@@H](Cc1c[nH]c2ncccc12)C(=O)N[C@@H](CCC(=O)O)C(=O)N[C@@H](Cc1ccc(O)cc1)C(=O)N1CCC[C@H]1C(=O)N[C@H](C(=O)N1CCC[C@H]1C(N)=O)c1ccccc1)C(C)(C)C [Compound R3003, Ac-Nvl-C-Y-E-N-Tbg-Y-azaTrp-E-Y-P-Phg-P-NH2] (Ac-[Nva]CYEN[Tle]Y[Trp(7-aza)]EYP[Phg]P-NH2) | most potent |  |  |
| CC(=O)N[C@H]1CSCc2cccc(c2)CSC[C@@H](C(=O)N[C@H](C(=O)N[C@@H](Cc2ccc(O)cc2)C(=O)N[C@@H](Cc2c[nH]c3ccccc23)C(=O)N[C@@H](CCC(=O)O)C(=O)N[C@@H](Cc2ccccc2)C(N)=O)C(C)C)NC(=O)[C@H](Cc2ccccc2)NC(=O)[C@H](CCCNC(=N)N)NC(=O)[C@H](CCC(=O)O)NC(=O)[C@H](C(C)C)NC1=O [Compound R3124, [mXylyl(1,6)]Ac-C-V-E-R-F-C-V-Y-W-E-F-NH2] (Ac-CVERFCVYWEF-NH2; linker 1-6 via mXylylene) |  |  | change in ability to inhibit red blood cell lysis in words (C5 [2]): decrease in the ability |
| CC(=O)N[C@H]1CSCc2cccc(c2)CSC[C@@H](C(=O)N[C@@H](CC(=O)O)C(=O)N[C@H](C(=O)N[C@@H](Cc2ccc(O)cc2)C(=O)N[C@@H](Cc2c[nH]c3ccccc23)C(=O)N[C@@H](CCC(=O)O)C(=O)N[C@@H](Cc2ccccc2)C(N)=O)C(C)C)NC(=O)[C@H](Cc2ccccc2)NC(=O)[C@H](CCCNC(=N)N)NC(=O)[C@H](CCC(=O)O)NC(=O)[C@H](C(C)C)NC1=O [Compound R3048, [mXylyl(1,6)]Ac-C-V-E-R-F-C-D-V-Y-W-E-F-NH2] (Ac-CVERFCDVYWEF-NH2; linker 1-6 via mXylylene) |  |  | change in ability to inhibit red blood cell lysis in words (C5 [2]): increased the ability |
| CC(=O)N[C@H]1CSCc2cccc(c2)CSC[C@@H](C(N)=O)NC(=O)[C@H](Cc2c[nH]cn2)NC(=O)[C@H](CO)N(C)C(=O)[C@H](Cc2ccc(O)cc2)NC(=O)[C@H](CCC(=O)O)NC(=O)[C@H](Cc2c[nH]c3ncccc23)NC(=O)[C@H]([C@@H](C)O)NC(=O)[C@H](c2ccccc2)NC1=O [Compound R3015, [mXylyl(1,9)]Ac-C-Phg-T-azaTrp-E-Y-(N—Me)S-H-C-NH2] (Ac-C[Phg]T[Trp(7-aza)]EY[NMeS]HC-NH2; linker 1-9 via mXylylene) |  | > 3.96 |  |
| CCC[C@H](NC(=O)[C@@H]1CSCc2cccc(c2)CSC[C@H](NC(=O)[C@H](CCC)NC(C)=O)C(=O)N2CCc3ccccc3[C@H]2C(=O)N[C@@H]([C@@H](C)O)C(=O)N[C@@H](Cc2c[nH]c3ncccc23)C(=O)N[C@@H](CCC(=O)O)C(=O)N[C@@H](Cc2ccc(O)cc2)C(=O)N(C)[C@@H](CO)C(=O)N[C@@H](Cc2c[nH]cn2)C(=O)N1)C(N)=O [Compound R3122, [mXylyl(2,10)]Ac-Nvl-C-Tiq-T-azaTrp-E-Y-(N—Me)S-H-C-Nvl-NH2] (Ac-[Nva]C[Tiq1c(1S)]T[Trp(7-aza)]EY[NMeS]HC[Nva]-NH2; linker 2-10 via mXylylene) |  | > 50 |  |
| CCC[C@H](NC(=O)[C@@H]1CCSCc2ccc(cc2)CSCC[C@H](NC(=O)[C@H](CCC)NC(C)=O)C(=O)N[C@@H](c2ccccc2)C(=O)N[C@@H]([C@@H](C)O)C(=O)N[C@@H](Cc2c[nH]c3ncccc23)C(=O)N[C@@H](CCC(=O)O)C(=O)N[C@@H](Cc2ccc(O)cc2)C(=O)N(C)[C@@H](CO)C(=O)N[C@@H](Cc2c[nH]cn2)C(=O)N1)C(N)=O [Compound R3108, [pXylyl(2,10)]Ac-Nvl-homoC-Phg-T-azaTrp-E-Y-(N—Me)S-H-homoC-Nvl-NH2] (Ac-[Nva][hCys][Phg]T[Trp(7-aza)]EY[NMeS]H[hCys][Nva]-NH2; linker 2-10 via pXylylene) |  | > 75 |  |
